Assay results published in the NIST ThermoML archive (doi:10.1021/je050503q).

Test: xn = mol fraction of the nth substance listed
Settings: Liquid

COCCOCCOCCOC [2,5,8,11-tetraoxadodecane] + FCC(F)(F)F
Settings | mass density [kg/m3]
283.27 K, 1086 kPa, x2 = 0.9485 | 1245.33
283.27 K, 2000 kPa, x2 = 0.9485 | 1248.44
283.27 K, 3016 kPa, x2 = 0.9485 | 1251.83
283.27 K, 4003 kPa, x2 = 0.9485 | 1255.03
283.27 K, 5009 kPa, x2 = 0.9485 | 1258.22
283.27 K, 6019 kPa, x2 = 0.9485 | 1261.33
283.28 K, 1070 kPa, x2 = 0.9798 | 1255.94
283.28 K, 1986 kPa, x2 = 0.9798 | 1259.56
283.28 K, 2984 kPa, x2 = 0.9798 | 1263.39
283.28 K, 4004 kPa, x2 = 0.9798 | 1267.2
283.28 K, 4996 kPa, x2 = 0.9798 | 1270.8
283.28 K, 5989 kPa, x2 = 0.9798 | 1274.3
283.29 K, 1047 kPa, x2 = 0.9655 | 1251.56
283.29 K, 1992 kPa, x2 = 0.9655 | 1255.06
283.29 K, 2996 kPa, x2 = 0.9655 | 1258.69
283.29 K, 3988 kPa, x2 = 0.9655 | 1262.16
283.29 K, 4999 kPa, x2 = 0.9655 | 1265.62
283.29 K, 5987 kPa, x2 = 0.9655 | 1268.91
293.3 K, 1086 kPa, x2 = 0.9485 | 1215.38
293.3 K, 2016 kPa, x2 = 0.9485 | 1219.06
293.3 K, 2998 kPa, x2 = 0.9485 | 1222.84
293.3 K, 3985 kPa, x2 = 0.9485 | 1226.51
293.3 K, 5000 kPa, x2 = 0.9485 | 1230.18
293.3 K, 6018 kPa, x2 = 0.9485 | 1233.75
293.31 K, 1086 kPa, x2 = 0.9798 | 1222.61
293.31 K, 2003 kPa, x2 = 0.9798 | 1226.87
293.31 K, 2985 kPa, x2 = 0.9798 | 1231.29
293.31 K, 4010 kPa, x2 = 0.9798 | 1235.72
293.31 K, 4992 kPa, x2 = 0.9798 | 1239.84
293.31 K, 6009 kPa, x2 = 0.9798 | 1243.96
293.32 K, 1047 kPa, x2 = 0.9655 | 1219.81
293.32 K, 2002 kPa, x2 = 0.9655 | 1223.94
293.32 K, 2997 kPa, x2 = 0.9655 | 1228.11
293.32 K, 3984 kPa, x2 = 0.9655 | 1232.11
293.32 K, 5001 kPa, x2 = 0.9655 | 1236.1
293.32 K, 5994 kPa, x2 = 0.9655 | 1239.88
303.33 K, 1176 kPa, x2 = 0.9798 | 1187.73
303.33 K, 1189 kPa, x2 = 0.9485 | 1184.28
303.33 K, 1998 kPa, x2 = 0.9485 | 1188.03
303.33 K, 2990 kPa, x2 = 0.9485 | 1192.49
303.33 K, 3984 kPa, x2 = 0.9485 | 1196.79
303.33 K, 5011 kPa, x2 = 0.9485 | 1201.05
303.33 K, 5992 kPa, x2 = 0.9485 | 1205.02
303.34 K, 2006 kPa, x2 = 0.9798 | 1192.33
303.34 K, 3006 kPa, x2 = 0.9798 | 1197.65
303.34 K, 4000 kPa, x2 = 0.9798 | 1202.73
303.34 K, 4990 kPa, x2 = 0.9798 | 1207.56
303.34 K, 6008 kPa, x2 = 0.9798 | 1212.35
303.35 K, 1189 kPa, x2 = 0.9655 | 1186.88
303.35 K, 2013 kPa, x2 = 0.9655 | 1191.11
303.35 K, 2992 kPa, x2 = 0.9655 | 1195.95
303.35 K, 4008 kPa, x2 = 0.9655 | 1200.76
303.35 K, 4992 kPa, x2 = 0.9655 | 1205.25
303.35 K, 5987 kPa, x2 = 0.9655 | 1209.62
313.35 K, 1434 kPa, x2 = 0.9485 | 1152.06
313.35 K, 1434 kPa, x2 = 0.9798 | 1151.46
313.35 K, 2004 kPa, x2 = 0.9798 | 1155.29
313.35 K, 2014 kPa, x2 = 0.9485 | 1155.26
313.35 K, 2982 kPa, x2 = 0.9798 | 1161.59
313.35 K, 2990 kPa, x2 = 0.9485 | 1160.47
313.35 K, 3990 kPa, x2 = 0.9485 | 1165.56
313.35 K, 4985 kPa, x2 = 0.9485 | 1170.41
313.35 K, 4986 kPa, x2 = 0.9798 | 1173.51
313.35 K, 5997 kPa, x2 = 0.9485 | 1175.14
313.36 K, 1436 kPa, x2 = 0.9655 | 1152.44
313.36 K, 3010 kPa, x2 = 0.9655 | 1161.91
313.36 K, 3986 kPa, x2 = 0.9798 | 1167.71
313.36 K, 5983 kPa, x2 = 0.9798 | 1179.03
313.37 K, 2008 kPa, x2 = 0.9655 | 1155.97
313.37 K, 4000 kPa, x2 = 0.9655 | 1167.49
313.37 K, 5010 kPa, x2 = 0.9655 | 1172.9
313.37 K, 5984 kPa, x2 = 0.9655 | 1177.91
323.39 K, 1731 kPa, x2 = 0.9798 | 1112.96
323.39 K, 1737 kPa, x2 = 0.9485 | 1118.26
323.39 K, 1989 kPa, x2 = 0.9798 | 1115.09
323.39 K, 1994 kPa, x2 = 0.9485 | 1119.99
323.39 K, 3007 kPa, x2 = 0.9485 | 1126.53
323.39 K, 3987 kPa, x2 = 0.9485 | 1132.49
323.39 K, 4990 kPa, x2 = 0.9485 | 1138.29
323.39 K, 5982 kPa, x2 = 0.9485 | 1143.72
323.4 K, 3001 kPa, x2 = 0.9798 | 1123.14
323.4 K, 4006 kPa, x2 = 0.9798 | 1130.6
323.4 K, 4997 kPa, x2 = 0.9798 | 1137.51
323.4 K, 5982 kPa, x2 = 0.9798 | 1144
323.41 K, 1737 kPa, x2 = 0.9655 | 1116.04
323.41 K, 1998 kPa, x2 = 0.9655 | 1118.03
323.41 K, 3002 kPa, x2 = 0.9655 | 1125.33
323.41 K, 4001 kPa, x2 = 0.9655 | 1132.15
323.41 K, 4985 kPa, x2 = 0.9655 | 1138.48
323.41 K, 6012 kPa, x2 = 0.9655 | 1144.72
